Measured values: patent US4603209A, “Fluorescent indicator dyes for calcium ions” (priority 1984, dated 1986)
Like-named read-outs stand apart in the source and are kept apart here.

Legend:
[1] = reference 11; cited from earlier work
[2] = calculated from tables of Martell & Smith, read-out: apparent dissociation constant for Ca-EGTA, cited from earlier work
[3] = assay type: binding
Description: (§1) Calcium and magnesium affinities of EGTA at high ionic strength were measured by titrating 125 micromole portions of EGTA (Fluka Chemical, puriss grade) with 1.00M KOH (J.T. Baker, low in carbonate). The EGTA was dissolved in 25 ml medium containing 225 mM KCl, 25 mM NaCl, and in some runs 10 mM CaCl2 or 21 mM MgCl2. This solution was stirred in a Radiometer TTA80 Titrator, bubbled continuously with nitrogen, and thermostatted at 18° C. while KOH was added in 0.005 or 0.01 ml aliquots from a ABU80autoburet. The pH was measured with a PHM84 meter, a G2040C electrode and an Ag/AgCl reference electrode connected to the titration solution by a long length of 0.01 inch catheter tubing filled with 3M KCl; this electrode chain was calibrated with phthalate (4.001), phosphate (6.889), and borax (9.245) buffers made according to National Bureau of Standards recipes. The fifty to eighty pH readings in each titration were analyzed by the FORTRAN program SCOGS of Sayce (see reference 36). The resulting proton ionization constants for EGTA were 9.537 and 8.961 with computed uncertainties of ±0.012 and ±0.008 respectively. […] At this ionic strength and any pH>4, the effective stability constant K'Ca may be calculated as (antilog 10.77)·[1 +antilog (3.51-pH)]/[1+antilog (9.537-pH)+antilog (9.537+8.961-2·pH)]in units of liters/mole. […]

[4] = assay type: binding; remark: listed apart in the source
Description: as §1

[5] = reference 11; cited from earlier work; remark: listed apart in the source
[6] = read-out: apparent dissociation constant for Mg-EGTA, cited from earlier work
[7] = cited from earlier work
[8] = Mg2+ titration of dye excitation spectrum in Mg-EGTA buffers; assay type: binding; conditions: 0.1-0.15M ionic strength, read-out: Mg^2+ dissociation constant
Description: An excitation spectrum was recorded of 2 microM fura-2 in 2.5 ml 32 mM KCl, 1 mM EGTA, 10 mM MOPS, adjusted with KOH to pH 7.18 while thermostatted at 20° C. Then 25 microliters of this solution was discarded and replaced by 25 microliters of a solution containing 2 microM fura-2, 104.8 mM MgCl2, 5.8 mM EGTA, 10 mM MOPS, adjusted with KOH to pH 7.18. Since both stocks had 1 mM free EGTA but the latter had 100 mM free Mg, the 99:1 v/v composite went to 1.0 mM free Mg^2+. Further iterations attained 2, 5, 10, and 20 mM free Mg^2+ by successively discarding 25.25, 76.53, 131.6, and 277.8 microliters of the mixture and replacing each with an equal volume of the high-Mg stock. Emission was collected at 510 nm, 4.6 nm bandpass, and excitation 0.9 nm bandpass.
Free [Mg^2+ ] was likewise controlled by Mg-EGTA buffers assuming an apparent dissociation constant for Mg-EGTA of 21 mM at pH 7.18 in 130 mM KCl at 20°, 8.96 mM at pH 7.05 in 130 mM KCl, 20 mM NaCl at 37°, and 99 mM at pH 7.02 in 225 mM KCl, 25 mM NaCl at 18°. Again, the last value was freshly determined in this study.
Binding constants for competing cations were most thoroughly explored for fura-2. […] Therefore fura-2 binds Mg^2+ less strongly than does quin2, whose Mg^2+ dissociation constants are about 1 mM and 2 mM respectively at 37° and ca. 22° (see references 6 and 7). […]

[9] = Zn2+ titration of dye fluorescence in Zn-EGTA buffer, Hill plots; assay type: binding
Description: Heavy metal binding constants were measured as follows. Affinities of stil-1 and fura-2 for Zn^2+ were measured by titrating 1-2 microM dye in 120 mM KCl, 5 mM K2 H2 EGTA, 10 mM MOPS, 5 mM Tris, with 1M ZnCl2 dispensed from a micrometer syringe. […] (see reference 11).
Binding of fura-2 to some of the physiologically more important heavy divalent metals was also briefly examined. Both stil-1 and fura-2 bind zinc with dissociation constants around 1.6-2 nM (pKZn 8.6-8.8). […] Curiously Zn^2+ shifts the fura-2 spectrum the same way that Ca^2+ does, whereas Zn^2+ quenches quin2 and therefore acts oppositely to Ca^2+. Fura-2 is also better than quin2 in rejecting Mn^2+, the Mn^2+ :Ca^2+ preferences being 42-fold and 510-fold respectively (see reference 26). […] A more precise estimate was prevented by experimental scatter, which may reflect more complicated stoichiometry than 1:1 or imperfectly anaerobic conditions. Both Mn^2+ and Fe^2+ quench fura-2 as expected for metals with many unpaired electrons. For comparison, EGTA prefers Zn^2+, Mn^2+, and Fe^2+ to Ca^2+, by factors of ca. 50, ca. 20, and ca. 8-fold respectively (see reference 11).

[10] = Direct competition between Mn2+ and Ca2+, quenching of dye fluorescence; assay type: binding; conditions: 100 mM KCl, 10 mM KMOPS, pH 7.2, room temperature
Description: (§2) Since Mn^2+ and Fe^2+ quench fura-2, the affinities for these ions relative to Ca^2+ could be assessed by direct competition between the metal ions each in stoichiometric excess. […] Fluorescences of 0.5 microM fura-2 at room temperature were recorded in solutions containing 100 mM KCl, 10 mM KMOPS, pH 7.2. One series also contained 0, 0.1, or 1 mM MnSO4 and 0, 1.1, 2.2, 4.4, or 8.8 mM CaCl2; another series had 2 mM CaCl2 and 0, 0.1, 0.2, 0.5, 1, 2 mM Fe(NH4)2 (SO4)2; and a third series with 0.2 mM Fe(NH4)2 (SO4)2 and 0, 0.2, 0.4, 0.8, 2, 4, and 8 mM CaCl2. Measurements with Fe(II) were made in a cuvet sealed by a septum and continually bubbled with nitrogen; the solutions stayed clear and nearly colorless until the septum was removed after the end of the experiment, whereupon deposition of yellow Fe(OH)3 followed rapidly.
(§3) Binding of fura-2 to some of the physiologically more important heavy divalent metals was also briefly examined. Both stil-1 and fura-2 bind zinc with dissociation constants around 1.6-2 nM (pKZn 8.6-8.8). […] Curiously Zn^2+ shifts the fura-2 spectrum the same way that Ca^2+ does, whereas Zn^2+ quenches quin2 and therefore acts oppositely to Ca^2+. Fura-2 is also better than quin2 in rejecting Mn^2+, the Mn^2+ :Ca^2+ preferences being 42-fold and 510-fold respectively (see reference 26). […]

[11] = Direct competition between Fe2+ and Ca2+, quenching of dye fluorescence; assay type: binding; conditions: 100 mM KCl, 10 mM KMOPS, pH 7.2, under nitrogen
Description: as §2, §3

| proton pKa for Ca.EGTA ([3]; 225 mm kcl, 25 mm nacl) | Kd ([3]; pH 7.02 in 225 mM KCl, 25 mM NaCl at 18° C., freshly determined, read-out: apparent dissociation constant for Ca-EGTA) | proton pKa for Mg.EGTA ([4]; 225 mm kcl, 25 mm nacl) | Kd ([4]; pH 7.02 in 225 mM KCl, 25 mM NaCl at 18°, freshly determined, read-out: apparent dissociation constant for Mg-EGTA) | Kd ([8]; 20°) | Kd ([8]; 37° C.) | pKZn ([9]; 120 mM KCl, pH 7.12, room temperature) | Kd ([9]; 120 mM KCl, pH 7.12, room temperature, read-out: dissociation constant for zinc) | Fe^2+ binding strength relative to Ca^2+ [11] | SMILES | preference for Fe^2+ over Ca^2+ [1] | Kd ([2]; pH 7.00 in 0.1M KCl, 20° C.) | Kd ([2]; pH 7.05 in 130 mM KCl, 20 mM NaCl at 37° C.) | Kd ([2]; pH 7.20 in 0.1M KCl, 20° C.) | preference for Mn^2+ over Ca^2+ [5] | Kd ([6]; pH 7.05 in 130 mM KCl, 20 mM NaCl at 37°) | Kd ([6]; pH 7.18 in 130 mM KCl at 20°) | Kd ([7]; pH 7.11, reference 11, read-out: effective dissociation constant of EGTA for Zn^2+) | preference for Zn^2+ over Ca^2+ ([7]; reference 11) | Zn^2+:Ca^2+ preference [9] | Mn^2+:Ca^2+ preference [10] |
| --- | --- | --- | --- | --- | --- | --- | --- | --- | --- | --- | --- | --- | --- | --- | --- | --- | --- | --- | --- | --- |
| 3.51±0.49 | 0.49 µM | 7.885±0.05 | 99000 µM | – | – | – | – | – | O=C(O)CN(CCOCCOCCN(CC(=O)O)CC(=O)O)CC(=O)O [EGTA, ethylene glycol bis(beta-aminoethyl ether)-N,N,N',N'-tetracetic acid] | ca. 8 fold | 0.38 µM | 0.214 µM | 0.151 µM | ca. 20 fold | 8960 µM | 21000 µM | 0.00427 µM | ca. 50 fold | – | – |
| – | – | – | – | ~9800 µM | ~5600 µM | 8.6-8.8 | 0.0016 to 0.002 µM | between three and ten time | Cc1ccc(N(CC(=O)O)CC(=O)O)c(OCCOc2cc3cc(-c4ncc(C(=O)O)o4)oc3cc2N(CC(=O)O)CC(=O)O)c1 [fura-2, 1-(2-(5'-carboxyoxazol-2'-yl)-6-aminobenzofuran-5-oxy)-2-(2'-amino-5'-methylphenoxy)ethane-N,N,N',N'-tetraacetic acid] | – | – | – | – | – | – | – | – | – | two orders of magnitude | 42 fold |
